In patent US11534443B2, “Quinazoline compounds, preparation method, use, and pharmaceutical composition thereof” (INSTITUTE OF MATERIA MEDICA, CHINESE ACADEMY OF MEDICAL …, priority 2016, dated 2022):

Key:
PI3Kα = PI3Kα (Homo sapiens (Human), UniProt P42336); assay: Biochemical evaluation of activity of PI3Kα (Kinase-Glo luminescence kinase assay); conditions: 25 μM ATP, 50 μM PIP2, 1 h at room temperature
In short: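 Inhibition of PI3Kα was measured in vitro with a luciferase-based Kinase-Glo™ luminescence readout in white 384-well plates at room temperature. Compound diluted 25-fold in buffer (50 mM Hepes pH 7.5, 3 mM MgCl2, 100 mM NaCl, 1 mM EGTA, 0.03% CHAPS, 2 mM DTT) was mixed with enzyme, then PIP2/ATP substrate was added. Percent inhibition used enzyme-free and DMSO controls; IC50 was fitted with XLfit.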

[1] = tested on: human lung cancer cell NCI-H460; assay: Tumor cell viability by MTT assay; assay type: cell-based; conditions: Homo sapiens, NCI-H460, 96 h
In short: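 NCI-H460 cells exposed to six to nine compound concentrations (DMSO below 0.2%, triplicate wells) for 96 hours at 37° C, 5% CO2. MTT added for 4 hours, formazan dissolved in DMSO and OD read at 570 nm against DMSO-treated controls.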

[2] = tested on: human lung cancer NCI-H460 subcutaneous xenografts; assay: Xenograft efficacy in nude mice, NCI-H460; assay type: in vivo; conditions: for Growth inhibition: NCI-H460 xenograft, 16 days of dosing
Procedure: (§1) Human lung cancer NCI-H460 cells were collected under aseptic conditions, and the cell density was adjusted to 1×10^6 cells/mL with sterile saline, 0.2 mL of which was implanted into the back of the nude mice. When the tumor grew to a diameter of about 1 cm, it was removed under septic condition and cut into pieces of 1 mm×1 mm which was implanted into the back of the nude mice. When the tumor grew to 100-300 mm^3 after 6 days, the animals were randomly divided into groups and administration was started (marked as Day 1). The test compound was administered orally every day. Body weight was measured twice a week and the length and width of the tumor were measured with a vernier caliper. After 16 days of dosing, the nude mice were sacrificed by cervical dislocation and the tumor issues were exfoliated, weighed and photographed. Finally, the tumor inhibitory rate was calculated. The antitumor efficacy was evaluated by the tumor inhibitory rate. The results were shown in Table 3, Table 4, FIG. 1 and FIG. 2.
(§2) The tumor volume was calculated as follows: Tumor volume=(a×b^2)/2, where a and b represented the length and width of the tumor.
(§3) The percentage of tumor growth inhibition was calculated as follows: Tumor growth inhibition (%)=(1−T/C)×100, where T was the final volume of the tumor in the test compound group and C was the final volume of the tumor in the solvent control group.

[3] = tested on: human gastric cancer HGC-27 subcutaneous xenografts; assay: Xenograft efficacy in nude mice, HGC-27; assay type: in vivo
Procedure: as §1, with “gastric” for “lung”, “HGC-27” for “NCI-H460”, “When the tumor grew to a diameter of about 1 cm, it was removed under septic condition and cut into pieces of 1 mm×1 mm which was implanted into the back of the nude mice.” left out, “0).” for “1).”, “20” for “16”, “rate.” for “rate. The results were shown in Table 3, Table 4, FIG. 1 and FIG. 2.”
as §2, §3
The percentage of tumor regression was calculated by 100×(final tumor volume-initial tumor volume)/initial tumor volume.

Chain of PI3Kα (P42336 whole entry): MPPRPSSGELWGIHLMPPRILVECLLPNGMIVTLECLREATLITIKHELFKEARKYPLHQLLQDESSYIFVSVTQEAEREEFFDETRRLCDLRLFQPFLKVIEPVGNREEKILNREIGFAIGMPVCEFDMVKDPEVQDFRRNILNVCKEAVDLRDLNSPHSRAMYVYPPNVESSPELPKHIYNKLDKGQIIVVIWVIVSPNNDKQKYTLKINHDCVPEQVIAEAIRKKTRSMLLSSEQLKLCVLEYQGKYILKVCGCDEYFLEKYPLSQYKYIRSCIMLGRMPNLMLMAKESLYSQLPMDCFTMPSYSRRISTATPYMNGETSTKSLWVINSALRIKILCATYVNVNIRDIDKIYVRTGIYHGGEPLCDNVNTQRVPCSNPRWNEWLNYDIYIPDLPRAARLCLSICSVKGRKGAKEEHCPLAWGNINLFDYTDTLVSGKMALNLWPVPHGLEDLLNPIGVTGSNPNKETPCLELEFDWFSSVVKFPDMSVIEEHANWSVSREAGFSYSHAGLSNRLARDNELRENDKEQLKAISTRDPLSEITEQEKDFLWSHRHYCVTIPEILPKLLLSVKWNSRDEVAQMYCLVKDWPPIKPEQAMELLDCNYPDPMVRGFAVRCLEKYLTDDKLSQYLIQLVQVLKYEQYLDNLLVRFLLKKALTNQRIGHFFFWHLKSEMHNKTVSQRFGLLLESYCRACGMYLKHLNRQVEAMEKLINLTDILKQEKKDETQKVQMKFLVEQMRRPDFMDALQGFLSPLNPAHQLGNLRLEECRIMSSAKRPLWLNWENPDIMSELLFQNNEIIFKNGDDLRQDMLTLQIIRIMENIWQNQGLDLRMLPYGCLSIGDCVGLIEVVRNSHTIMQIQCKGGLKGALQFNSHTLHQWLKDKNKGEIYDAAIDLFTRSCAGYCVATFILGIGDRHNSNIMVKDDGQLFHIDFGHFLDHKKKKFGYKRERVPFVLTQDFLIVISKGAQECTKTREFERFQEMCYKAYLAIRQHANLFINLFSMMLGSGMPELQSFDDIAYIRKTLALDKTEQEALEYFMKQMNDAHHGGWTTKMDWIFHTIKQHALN
Chain of PI3Kα (P27986 whole entry partner): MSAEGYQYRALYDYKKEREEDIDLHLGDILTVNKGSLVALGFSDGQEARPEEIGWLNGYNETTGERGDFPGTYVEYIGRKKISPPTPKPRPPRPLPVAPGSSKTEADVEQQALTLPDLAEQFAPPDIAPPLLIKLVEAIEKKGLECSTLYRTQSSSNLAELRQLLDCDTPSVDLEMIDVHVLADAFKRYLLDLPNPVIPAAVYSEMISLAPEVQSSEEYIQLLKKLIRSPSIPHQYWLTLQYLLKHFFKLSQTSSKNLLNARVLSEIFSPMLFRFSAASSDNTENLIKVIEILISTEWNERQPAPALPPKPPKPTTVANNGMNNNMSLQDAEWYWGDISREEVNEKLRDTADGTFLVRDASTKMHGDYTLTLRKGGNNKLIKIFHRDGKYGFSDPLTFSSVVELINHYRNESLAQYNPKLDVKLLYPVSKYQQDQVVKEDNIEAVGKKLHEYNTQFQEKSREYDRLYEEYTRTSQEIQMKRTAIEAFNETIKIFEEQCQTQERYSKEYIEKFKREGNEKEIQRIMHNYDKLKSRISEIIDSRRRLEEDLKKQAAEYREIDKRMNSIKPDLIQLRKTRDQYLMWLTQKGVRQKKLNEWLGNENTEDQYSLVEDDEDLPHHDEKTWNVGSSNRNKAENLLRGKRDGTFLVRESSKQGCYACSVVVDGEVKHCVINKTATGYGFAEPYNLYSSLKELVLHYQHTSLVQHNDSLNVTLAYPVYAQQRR

COc1ncc(-c2cc(O[C@@H]3CCOC3)c3nc(N)nc(C)c3c2)cc1NS(=O)(=O)c1ccc(F)cc1F [Example 9, (R)—N-(5-(2-amino-4-methyl-8-((tetrahydrofuran-3-yl)oxy)quinazolin-6-yl)-2-methoxypyridin-3-yl)-2,4-difluorobenzenesulfonamide]
IC50 (PI3Kα): 0.86 nM | IC50 [1]: 93 nM | inhibitory effect against growth of NCI-H460 subcutaneous xenografts (in words) [2]: significant inhibitory effects | Growth inhibition ([2]; 5 mg/kg/day orally): 39.2% | Growth inhibition ([2]; 10 mg/kg/day orally): 56.3% | Growth inhibition ([2]; 20 mg/kg/day orally): 77.0%

COc1ncc(-c2cc(OC3CCOCC3)c3ncnc(C)c3c2)cc1NS(=O)(=O)c1ccc(F)cc1F [Example 44, N-(2-methoxy-5-(4-methyl-8-((tetrahydro-2H-pyran-4-yl)oxy)quinazolin-6-yl)pyridin-3-yl)-2,4-difluorobenzenesulfonamide]
IC50 (PI3Kα): 0.65 nM | IC50 [1]: 29 nM | inhibitory effect against growth of NCI-H460 subcutaneous xenografts (in words) [2]: significant inhibitory effects | Growth inhibition ([2]; 1 mg/kg/day orally): 60.3%

COc1ncc(-c2cc(OCC3CCN(C)CC3)c3ncnc(C)c3c2)cc1NS(=O)(=O)c1ccc(F)cc1F [Example 66, N-(2-methoxy-5-(4-methyl-8-((1-methylpiperidin-4-yl)methoxy)quinazolin-6-yl)pyridin-3-yl)-2,4-difluoro-benzenesulfonamide]
IC50 (PI3Kα): 1.7 nM | IC50 [1]: 230 nM

COc1ncc(-c2cc(OCC3CCOC3)c3ncnc(C)c3c2)cc1NS(=O)(=O)c1ccc(F)cc1F (stereo not shown) [Example 61, N-(2-methoxy-5-(4-methyl-8-((tetrahydrofuran-3-yl)methoxy)quinazolin-6-yl)pyridin-3-yl)-2,4-difluorobenzenesulfonamide]
IC50 (PI3Kα): 1 nM | IC50 [1]: 45 nM

COc1ncc(-c2cc(OC(C)C)c3nc(N)nc(C)c3c2)cc1NS(=O)(=O)c1ccc(F)cc1F [Example 26, N-(5-(2-amino-8-isopropoxy-4-methylquinazolin-6-yl)-2-methoxypyridin-3-yl)-2,4-difluorobenzenesulfonamide]
IC50 (PI3Kα): 0.79 nM | IC50 [1]: 140 nM

COc1ncc(-c2cc(OC)c3ncnc(C)c3c2)cc1NS(=O)(=O)c1ccc(F)cc1F [Example 72, N-(2-methoxy-5-(8-methoxy-4-methylquinazolin-6-yl)pyridin-3-yl)-2,4-difluorobenzenesulfonamide]
IC50 (PI3Kα): 0.7 nM | IC50 [1]: 500 nM

CNc1nc(C)c2cc(-c3cnc(OC)c(NS(=O)(=O)c4ccc(F)cc4F)c3)cc(OC3CCOCC3)c2n1 [Example 29, N-(2-methoxy-5-(4-methyl-2-(methylamino)-8-((tetrahydro-2H-pyran-4-yl)oxy)quinazolin-6-yl)pyridin-3-yl)-2,4-difluorobenzenesulfonamide]
IC50 (PI3Kα): 1.1 nM | IC50 [1]: 59 nM

COc1ncc(-c2cc(OC3CCC(F)(F)CC3)c3nc(N)nc(C)c3c2)cc1NS(=O)(=O)c1ccc(F)cc1F [Example 17, N-(5-(2-amino-8-((4,4-difluorocyclohexyl)oxy)-4-methylquinazolin-6-yl)-2-methoxypyridin-3-yl)-2,4-difluorobenzenesulfonamide]
IC50 (PI3Kα): 2.3 nM | IC50 [1]: 83 nM

COc1ncc(-c2cc(OC(C)C)c3ncnc(C)c3c2)cc1NS(=O)(=O)c1ccc(F)cc1F [Example 69, N-(5-(8-isopropoxy-4-methylquinazolin-6-yl)-2-methoxypyridin-3-yl)-2,4-difluorobenzenesulfonamide]
IC50 (PI3Kα): 2.2 nM | IC50 [1]: 50 nM

COc1ncc(-c2cc(OCC3CCOCC3)c3nc(N)nc(C)c3c2)cc1NS(C)(=O)=O [Example 14, N-(5-(2-amino-4-methyl-8-((tetrahydro-2H-pyran-4-yl)methoxy)quinazolin-6-yl)-2-methoxypyridin-3-yl)methanesulfonamide]
IC50 (PI3Kα): 3.3 nM | IC50 [1]: 2000 nM

CNc1nc(C)c2cc(-c3cnc(OC)c(NS(=O)(=O)c4ccc(F)cc4F)c3)cc(O[C@@H]3CCOC3)c2n1 [Example 32, (R)—N-(2-methoxy-5-(4-methyl-2-(methylamino)-8-((tetrahydrofuran-3-yl)oxy)quinazolin-6-yl)pyridin-3-yl)-2,4-difluorobenzenesulfonamide]
IC50 (PI3Kα): 0.82 nM | inhibitory effect on growth of HGC-27 subcutaneous xenografts (in words) [3]: significant inhibitory effect | Growth inhibition ([3]; HGC-27 xenograft, 5 mg/kg/day orally, 20 days of dosing): 76.9% | Regression ([3]; HGC-27 xenograft, 10 mg/kg/day orally, 20 days of dosing): 70.5%

COc1ncc(-c2cc(OC3CCOCC3)c3ncnc(C)c3c2)cc1NS(=O)(=O)c1ccc(Cl)s1 [Example 46, N-(2-methoxy-5-(4-methyl-8-((tetrahydro-2H-pyran-4-yl)oxy)quinazolin-6-yl)pyridin-3-yl)-5-chlorothiophene-2-sulfonamide]
IC50 (PI3Kα): 0.7 nM | IC50 [1]: 29 nM

COc1ncc(-c2cc(OCCN3CCOCC3)c3nc(N)nc(C)c3c2)cc1NS(=O)(=O)c1ccc(F)cc1F [Example 16, N-(5-(2-amino-4-methyl-8-(2-morpholinoethoxy)quinazolin-6-yl)-2-methoxypyridin-3-yl)-2,4-difluorobenzenesulfonamide]
IC50 (PI3Kα): 4.1 nM | IC50 [1]: 1100 nM
